US20140235627A1, “ß2-ADRENOCEPTOR AGONIST FOR IMPROVEMENT OF EXERCISE TOLERANCE” (BOEHRINGER INGELHEIM INTERNATIONAL GMBH, priority 2012, published 2014)

Key:
Format in all cases: in vivo, human
patients with COPD [1] = experiment: Inspiratory capacity (IC) at isotime during exercise (studies 1222.37 and 1222.38); conditions: after 6 weeks
From the text: (§1) Constant work rate cycle ergometry at 75% Wcap was selected as the exercise modality based on previous experience with other bronchodilators. The primary efficacy endpoint was endurance time, while IC at isotime and the intensity of breathing discomfort at isotime were key secondary endpoints. Isotime was defined as the endurance time of the constant work rate exercise test of shortest duration, which ensured that IC and intensity of breathing discomfort were compared across treatments at the same time of exercise for an individual.

patients with COPD [2] = experiment: Rescue medication use (electronic diary) in 48-week pivotal studies; conditions: for Reduction in daytime rescue bronchodilator use compared to placebo / Reduction in nighttime rescue bronchodilator use compared to placebo: at 48 weeks
Method: Additionally to that rescue medication use was assessed in 48-week pivotal studies using an electronic diary, indicated whether the bronchodilating effects of olodaterol provided sufficient symptomatic benefit to reduce the need for albuterol to control symptoms on a daily and nightly basis.

patients with COPD [3] = experiment: Endurance time during constant work rate cycle ergometry at 75% Wcap (studies 1222.37 and 1222.38); conditions: after 6 weeks
From the text: While, the FDA COPD draft guidance for industry notes that—assessment of exercise capacity by treadmill or cycle ergometry combined with lung volume assessment potentially can be a tool to assess efficacy of a drug (Guidance for industry: chronic obstructive pulmonary disease: developing drugs for treatment (draft guidance, November 2007). Rockville: U.S. Department of Health and Human Services, Food and Drug Administration, Center for Drug Evaluation and Research (CDER) (2007)) two studies (1222.37 & 1222.38) were designed to evaluate the effects of olodaterol on improvement of exercise.
as §1
At baseline, the geometric mean exercise endurance time during constant work rate cycle ergometry to symptom limitation at 75% of maximal work capacity was 414 seconds (6 minutes 54 seconds) in study 1222.37 and 374 seconds (6 minutes 14 seconds) in study 1222.38.

patients with COPD [4] = experiment: Intensity of breathing discomfort (Borg Scale) at isotime during exercise (studies 1222.37 and 1222.38); conditions: after 6 weeks
From the text: as §1

[5] = study 1222.37, olodaterol 5 μg, listed as olodaterol
[6] = study 1222.37, olodaterol 10 μg
[7] = study 1222.37, olodaterol 10 μg, listed as olodaterol
[8] = study 1222.38, olodaterol 5 μg, listed as olodaterol
[9] = study 1222.38, olodaterol 10 μg
[10] = study 1222.38, olodaterol 10 μg, listed as olodaterol

COc1ccc(CC(C)(C)NC[C@H](O)c2cc(O)cc3c2OCC(=O)N3)cc1 [Olodaterol]
Adjusted Mean Inspiratory Capacity at Isotime During Exercise, Treatment mean (SE) (patients with COPD [1]; study 1222.37, olodaterol 5 μg): 2.099 (0.038) L
Inspiratory Capacity at Isotime, Mean (SE) compared to placebo (patients with COPD [1]; study 1222.37, olodaterol 5 μg): 0.182 (0.036) L
Inspiratory Capacity at Isotime, Mean (SE) compared to placebo (patients with COPD [1]; [5]): statistically significant increase
Adjusted Mean Inspiratory Capacity at Isotime During Exercise, Treatment mean (SE) (patients with COPD [1]; [6]): 2.091 (0.038) L
Inspiratory Capacity at Isotime, Mean (SE) compared to placebo (patients with COPD [1]; [6]): 0.174 (0.036) L
Inspiratory Capacity at Isotime, Mean (SE) compared to placebo (patients with COPD [1]; [7]): statistically significant increase
Adjusted Mean Inspiratory Capacity at Isotime During Exercise, Treatment mean (SE) (patients with COPD [1]; study 1222.38, olodaterol 5 μg): 2.246 (0.039) L
Inspiratory Capacity at Isotime, Mean (SE) compared to placebo (patients with COPD [1]; study 1222.38, olodaterol 5 μg): 0.084 (0.035) L
Inspiratory Capacity at Isotime, Mean (SE) compared to placebo (patients with COPD [1]; [8]): statistically significant increase
Adjusted Mean Inspiratory Capacity at Isotime During Exercise, Treatment mean (SE) (patients with COPD [1]; [9]): 2.328 (0.039) L
Inspiratory Capacity at Isotime, Mean (SE) compared to placebo (patients with COPD [1]; [9]): 0.166 (0.034) L
Inspiratory Capacity at Isotime, Mean (SE) compared to placebo (patients with COPD [1]; [10]): statistically significant increase
Reduction in daytime rescue bronchodilator use compared to placebo (patients with COPD [2]; 1222.11/12, 5 μg): −0.455 units
Reduction in nighttime rescue bronchodilator use compared to placebo (patients with COPD [2]; 1222.11/12, 5 μg): −0.497 units
Reduction in daytime rescue bronchodilator use compared to placebo (patients with COPD [2]; 1222.11/12, 10 μg): −0.574 units
Reduction in nighttime rescue bronchodilator use compared to placebo (patients with COPD [2]; 1222.11/12, 10 μg): −0.775 units
Reduction in daytime rescue bronchodilator use compared to placebo (patients with COPD [2]; 1222.13/14, 5 μg): −0.269 units
Reduction in nighttime rescue bronchodilator use compared to placebo (patients with COPD [2]; 1222.13/14, 5 μg): −0.530 units
Reduction in daytime rescue bronchodilator use compared to placebo (patients with COPD [2]; 1222.13/14, 10 μg): −0.337 units
Reduction in nighttime rescue bronchodilator use compared to placebo (patients with COPD [2]; 1222.13/14, 10 μg): −0.617 units
Reduction in daytime and nighttime rescue medication use relative to twice-daily formoterol (patients with COPD [2]; studies 1222.13, 1222.14, once-daily olodaterol): comparable to twice-daily formoterol
Adjusted Mean Endurance Time, Treatment Mean (SE) (patients with COPD [3]; study 1222.37, olodaterol 5 μg): 421.58 (13.459) Seconds
Endurance time increase compared with placebo (patients with COPD [3]; study 1222.37, olodaterol 5 μg): 14.0%
Adjusted Mean Endurance Time, Treatment Mean (SE) (patients with COPD [3]; [6]): 420.72 (13.602) Seconds
Endurance time increase compared with placebo (patients with COPD [3]; [6]): 13.8%
Adjusted Mean Endurance Time, Treatment Mean (SE) (patients with COPD [3]; study 1222.38, olodaterol 5 μg): 396.31 (13.680) Seconds
Endurance time increase compared with placebo (patients with COPD [3]; study 1222.38, olodaterol 5 μg): 11.8%
Adjusted Mean Endurance Time, Treatment Mean (SE) (patients with COPD [3]; [9]): 391.45 (13.566) Seconds
Endurance time increase compared with placebo (patients with COPD [3]; [9]): 10.5%
Intensity of Breathing Discomfort at Isotime During Exercise, Treatment mean (SE) (patients with COPD [4]; study 1222.37, olodaterol 5 μg): 5.104 (0.182) Borg Scale
Intensity of Breathing Discomfort at Isotime, Difference to placebo Mean (SE) (patients with COPD [4]; study 1222.37, olodaterol 5 μg): −0.766 (0.223) Borg Scale
Intensity of Breathing Discomfort at Isotime, Difference to placebo Mean (SE) (patients with COPD [4]; [5]): statistically significant reduction
Intensity of Breathing Discomfort at Isotime During Exercise, Treatment mean (SE) (patients with COPD [4]; [6]): 5.235 (0.185) Borg Scale
Intensity of Breathing Discomfort at Isotime, Difference to placebo Mean (SE) (patients with COPD [4]; [6]): −0.634 (0.225) Borg Scale
Intensity of Breathing Discomfort at Isotime, Difference to placebo Mean (SE) (patients with COPD [4]; [7]): statistically significant reduction
Intensity of Breathing Discomfort at Isotime During Exercise, Treatment mean (SE) (patients with COPD [4]; study 1222.38, olodaterol 5 μg): 5.250 (0.180) Borg Scale
Intensity of Breathing Discomfort at Isotime, Difference to placebo Mean (SE) (patients with COPD [4]; study 1222.38, olodaterol 5 μg): −0.336 (0.214) Borg Scale
Intensity of Breathing Discomfort at Isotime, Difference to placebo Mean (SE) (patients with COPD [4]; [8]): no significant differences
Intensity of Breathing Discomfort at Isotime During Exercise, Treatment mean (SE) (patients with COPD [4]; [9]): 5.520 (0.181) Borg Scale
Intensity of Breathing Discomfort at Isotime, Difference to placebo Mean (SE) (patients with COPD [4]; [9]): −0.066 (0.214) Borg Scale
Intensity of Breathing Discomfort at Isotime, Difference to placebo Mean (SE) (patients with COPD [4]; [10]): no significant differences
